Data on one molecule can be found in ChEMBL document CHEMBL4311992, “Discovery of 3-(((9H-purin-6-yl)amino)methyl)-4,6-dimethylpyridin-2(1H)-one derivatives as novel tubulin polymerization inhibitors for treatment of cancer” (Eur J Med Chem, 2019).

Active and inactive are the calls of the source. The rule behind the calls is not given here.

Data set [1] addresses Testis-specific serine/threonine-protein kinase 4 (Homo sapiens) (UniProt Q6SA08). Put plainly: Inhibition of recombinant full-length human TSSK4 assessed as residual activity at 10 uM using KKLNRTLSFAEPG as substrate measured after 40 mins in presence of [gamma33P]ATP by scintillation counting method.
Data set [2] has as its target Platelet-derived growth factor receptor beta (Homo sapiens) (UniProt P09619). Put plainly: Inhibition of recombinant human PDGFRbeta (557 to end residues) assessed as residual activity at 10 uM using poly(Glu, Tyr) 4:1 as substrate measured after 40 mins in presence of [gamma33P]ATP by scintillation counting method.
The target of data set [3] is Serine/threonine-protein kinase TBK1 (Homo sapiens) (UniProt Q9UHD2). The data set can be described thus: Inhibition of recombinant full-length human TBK1 assessed as residual activity at 10 uM using KRRRALS(p)VASLPGL as substrate measured after 40 mins in presence of [gamma33P]ATP by scintillation counting method.
Chain of Serine/threonine-protein kinase TBK1 (Homo sapiens) (Q9UHD2 whole entry): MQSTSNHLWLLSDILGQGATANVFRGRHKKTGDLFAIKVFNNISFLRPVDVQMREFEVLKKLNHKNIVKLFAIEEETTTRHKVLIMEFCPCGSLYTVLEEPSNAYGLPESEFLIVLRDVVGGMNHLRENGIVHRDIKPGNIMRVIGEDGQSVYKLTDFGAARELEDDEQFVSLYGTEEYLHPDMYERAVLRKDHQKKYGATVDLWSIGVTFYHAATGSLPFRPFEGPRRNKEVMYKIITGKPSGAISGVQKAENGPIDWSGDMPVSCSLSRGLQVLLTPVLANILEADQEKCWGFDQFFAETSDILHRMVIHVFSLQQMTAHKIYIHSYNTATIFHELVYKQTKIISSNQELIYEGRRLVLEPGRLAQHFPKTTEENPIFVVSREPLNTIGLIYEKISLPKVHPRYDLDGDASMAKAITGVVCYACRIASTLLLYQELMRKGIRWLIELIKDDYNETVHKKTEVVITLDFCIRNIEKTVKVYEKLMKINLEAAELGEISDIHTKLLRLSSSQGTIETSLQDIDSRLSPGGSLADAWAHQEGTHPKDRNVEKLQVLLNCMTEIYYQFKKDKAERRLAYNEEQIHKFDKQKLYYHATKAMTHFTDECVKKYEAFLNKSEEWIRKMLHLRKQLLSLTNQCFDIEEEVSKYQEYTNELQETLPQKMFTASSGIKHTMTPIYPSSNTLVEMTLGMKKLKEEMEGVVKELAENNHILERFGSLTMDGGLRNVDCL
Data set [4] deals with Cyclin-dependent kinase 2/cyclin E1 (Homo sapiens) (UniProt P24864+P24941). Put plainly: Inhibition of recombinant full-length human CDK2/cyclinE assessed as residual activity at 10 uM using histone H1 as substrate measured after 40 mins in presence of [gamma33P]ATP by scintillation counting method. The format is protein-complex assay.
Data set [5] concerns SW-620. Put plainly: Induction of apoptosis in human SW620 cells assessed as necrotic cells at 50 nM measured after 48 hrs by Annexin V-FITC/propidium iodide staining-based flow cytometry (reference value: 2.71%). The format is functional.
Data set [6] deals with Serine/threonine-protein kinase TAO3 (Homo sapiens), Q9H2K8 [UNDEFINED MUTATION]. Put plainly: Inhibition of human TAO3 (1 to 411 residues) using myelin basic protein as substrate measured after 40 mins in presence of [gamma33P]ATP by scintillation counting method. More on the design: scale not given: the % may be the effect or the level left.
Data set [7] addresses MAP/microtubule affinity-regulating kinase 3 (Homo sapiens) (UniProt P27448). Put plainly: Inhibition of recombinant full-length human MARK3 assessed as residual activity at 10 uM using KKKVSRSGLYRSPSMPENLNRPR as substrate measured after 40 mins in presence of [gamma33P]ATP by scintillation counting method.
The test system of data set [8] is Proto-oncogene tyrosine-protein kinase Src (Homo sapiens), P12931 [T341M]. The data set can be described thus: Inhibition of recombinant full-length human Src T341M mutant assessed as residual activity at 10 uM using GGEEEEYFELVKKKK as substrate measured after 40 mins in presence of [gamma33P]ATP by scintillation counting method.
Data set [9] deals with 5'-AMP-activated protein kinase catalytic subunit alpha-1 (Homo sapiens) (UniProt Q13131). Put plainly: Inhibition of recombinant full-length human AMPKalpha1 assessed as residual activity at 10 uM using AMARAASAAALARRR as substrate measured after 40 mins in presence of [gamma33P]ATP by scintillation counting method.
In data set [10] the target is MAP kinase-activated protein kinase 3 (Homo sapiens) (UniProt Q16644). Put plainly: Inhibition of recombinant human MAPKAPK3 (2 to end residues) assessed as residual activity at 10 uM using KKLNRTLSVA as substrate measured after 40 mins in presence of [gamma33P]ATP by scintillation counting method.
Chain of MAP kinase-activated protein kinase 3 (Homo sapiens) (Q16644 whole entry, looked up): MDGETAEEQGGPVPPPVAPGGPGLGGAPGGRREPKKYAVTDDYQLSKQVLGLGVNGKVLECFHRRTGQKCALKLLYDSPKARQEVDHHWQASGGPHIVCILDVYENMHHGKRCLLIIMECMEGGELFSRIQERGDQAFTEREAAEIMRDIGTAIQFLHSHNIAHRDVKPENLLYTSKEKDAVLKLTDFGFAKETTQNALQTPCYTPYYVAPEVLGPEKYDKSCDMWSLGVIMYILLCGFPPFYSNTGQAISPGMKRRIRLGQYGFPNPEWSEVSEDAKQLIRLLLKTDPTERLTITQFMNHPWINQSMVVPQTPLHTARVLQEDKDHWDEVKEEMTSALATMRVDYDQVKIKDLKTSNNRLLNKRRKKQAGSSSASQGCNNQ
Data set [11] relates to SW-620. Put plainly: Induction of apoptosis in human SW620 cells assessed as increase in cleaved caspase3 expression up to 200 nM measured after 48 hrs by Western blot analysis. The format is functional, cell-based. Background: In western blotting, separated proteins are transferred to a membrane and probed.
Data set [12] has as its system HCT-116. Put plainly: Antitumor activity against human HCT116 cells xenografted in nude BALB/c mouse assessed as tumor growth inhibition at 80 mg/kg, po administered once daily for 4 weeks measured post-last dose relative to control. The format is functional. The conditions noted are these: HCT-116, po, 672 h, read-out: TGI. For orientation: Xenograft models place foreign cells or tissue in a host animal.

Data set [13] deals with Serine/threonine-protein kinase Nek6 (Homo sapiens) (UniProt Q9HC98). Put plainly: Inhibition of recombinant human NEK6 (2 to end residues) assessed as residual activity at 10 uM using FLAKSFGSPNRAYKK as substrate measured after 40 mins in presence of [gamma33P]ATP by scintillation counting method.
Chain of Serine/threonine-protein kinase Nek6 (Homo sapiens) (Q9HC98 whole entry): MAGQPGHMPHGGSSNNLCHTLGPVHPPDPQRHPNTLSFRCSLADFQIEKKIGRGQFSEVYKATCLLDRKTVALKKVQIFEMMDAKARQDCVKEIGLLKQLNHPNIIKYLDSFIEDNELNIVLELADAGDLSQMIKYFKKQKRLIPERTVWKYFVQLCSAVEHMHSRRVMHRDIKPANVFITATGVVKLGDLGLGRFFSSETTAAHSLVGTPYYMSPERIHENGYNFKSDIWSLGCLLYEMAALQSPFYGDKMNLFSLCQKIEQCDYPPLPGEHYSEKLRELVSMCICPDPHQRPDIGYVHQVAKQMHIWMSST
Data set [14] deals with cGMP-dependent protein kinase 1 (Homo sapiens) (UniProt Q13976). The data set can be described thus: Inhibition of recombinant full-length human PKG1alpha assessed as residual activity at 10 uM using RRRLSFAEPG as substrate measured after 40 mins in presence of [gamma33P]ATP by scintillation counting method.
Chain of cGMP-dependent protein kinase 1 (Homo sapiens) (Q13976 whole entry): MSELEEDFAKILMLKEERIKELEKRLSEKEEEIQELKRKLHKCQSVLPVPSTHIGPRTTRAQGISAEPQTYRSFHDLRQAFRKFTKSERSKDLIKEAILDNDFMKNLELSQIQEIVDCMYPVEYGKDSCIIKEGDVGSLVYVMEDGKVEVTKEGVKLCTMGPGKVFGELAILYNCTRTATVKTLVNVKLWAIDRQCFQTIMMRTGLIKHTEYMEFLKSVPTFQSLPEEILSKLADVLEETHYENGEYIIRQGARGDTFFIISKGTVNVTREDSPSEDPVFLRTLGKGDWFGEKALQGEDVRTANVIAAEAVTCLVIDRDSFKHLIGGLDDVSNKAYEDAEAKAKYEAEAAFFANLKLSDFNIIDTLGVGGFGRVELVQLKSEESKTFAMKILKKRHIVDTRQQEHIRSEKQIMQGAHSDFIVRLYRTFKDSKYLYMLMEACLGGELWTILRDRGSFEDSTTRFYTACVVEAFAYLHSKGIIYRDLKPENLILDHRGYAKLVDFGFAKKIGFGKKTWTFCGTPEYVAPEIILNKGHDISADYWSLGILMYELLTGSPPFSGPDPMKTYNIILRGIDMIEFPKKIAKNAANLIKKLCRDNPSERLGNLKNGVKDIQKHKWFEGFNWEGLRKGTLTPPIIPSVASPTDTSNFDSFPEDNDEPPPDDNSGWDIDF
Data set [15] has as its target Dual specificity tyrosine-phosphorylation-regulated kinase 2 (Homo sapiens) (UniProt Q92630). Put plainly: Inhibition of recombinant full-length human DYRK2 assessed as residual activity at 10 uM using casein as substrate measured after 40 mins in presence of [gamma33P]ATP by scintillation counting method.
Data set [16] concerns HCT-116. The data set can be described thus: Induction of apoptosis in human HCT116 cells assessed as late apoptotic cells at 100 nM measured after 48 hrs by Annexin V-FITC/propidium iodide staining-based flow cytometry (reference value: 3.87%). The format is functional. A general note: In flow cytometry, cells or beads pass a laser one at a time.
In data set [17] the target is Fibroblast growth factor receptor 2 (Homo sapiens) (UniProt P21802). The data set can be described thus: Inhibition of recombinant human FGFR2 (456 to 770 residues) assessed as residual activity at 10 uM using poly(Glu, Tyr) 4:1 as substrate measured after 40 mins in presence of [gamma33P]ATP by scintillation counting method.
Chain of Fibroblast growth factor receptor 2 (Homo sapiens) (P21802 22-821 limits assumed): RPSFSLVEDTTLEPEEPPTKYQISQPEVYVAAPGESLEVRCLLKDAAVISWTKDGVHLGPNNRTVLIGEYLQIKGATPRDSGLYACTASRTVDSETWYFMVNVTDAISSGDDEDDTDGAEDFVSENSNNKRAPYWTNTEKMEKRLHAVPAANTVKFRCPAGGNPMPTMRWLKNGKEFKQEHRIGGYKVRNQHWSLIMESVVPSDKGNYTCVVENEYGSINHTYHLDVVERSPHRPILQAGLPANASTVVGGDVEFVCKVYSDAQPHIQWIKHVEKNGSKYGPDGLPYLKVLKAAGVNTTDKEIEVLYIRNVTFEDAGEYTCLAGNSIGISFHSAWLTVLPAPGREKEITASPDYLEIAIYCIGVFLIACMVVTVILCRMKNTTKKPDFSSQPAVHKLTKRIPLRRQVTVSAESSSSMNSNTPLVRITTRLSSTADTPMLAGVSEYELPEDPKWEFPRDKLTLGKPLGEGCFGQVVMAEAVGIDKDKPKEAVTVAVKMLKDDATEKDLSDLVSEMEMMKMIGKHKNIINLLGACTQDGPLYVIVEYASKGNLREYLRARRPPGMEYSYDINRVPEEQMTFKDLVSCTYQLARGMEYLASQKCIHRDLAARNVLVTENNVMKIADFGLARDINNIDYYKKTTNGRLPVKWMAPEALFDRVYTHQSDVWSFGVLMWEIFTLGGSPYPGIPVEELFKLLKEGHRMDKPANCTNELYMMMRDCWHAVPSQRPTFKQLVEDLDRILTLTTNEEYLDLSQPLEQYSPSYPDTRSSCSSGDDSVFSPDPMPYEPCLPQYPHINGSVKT
In data set [18] the test system is Tyrosine-protein kinase ABL1 (Homo sapiens), P00519 [H396P]. Put plainly: Inhibition of recombinant human ABL H396P mutant (27 to end residues) assessed as residual activity at 10 uM using EAIYAAPFAKKK as substrate measured after 40 mins in presence of [gamma33P]ATP by scintillation counting method.
Data set [19] is described as follows: Toxicity in nude BALB/c mouse assessed as change in albumin level at 40 to 80 mg/kg, po once daily for 4 weeks measured post-last dose. The note with it: in vivo, 672 h. The format is organism-based.
Data set [20] deals with CDK3/Cyclin E (Homo sapiens) (UniProt P24864+Q00526). Put plainly: Inhibition of recombinant full-length human CDK3/cyclinE assessed as residual activity at 10 uM using histone H1 as substrate measured after 40 mins in presence of [gamma33P]ATP by scintillation counting method. The format is protein-complex assay.
Data set [21] has as its system Angiopoietin-1 receptor (Homo sapiens), Q02763 [Q939H,Q940H,R849W]. Put plainly: Inhibition of human Tie2 Q939H/Q940H/R849W mutant (771 to end residues) using EFPIYDFLPAKKK as substrate measured after 40 mins in presence of [gamma33P]ATP by scintillation counting method. More on the design: scale not given: the % may be the effect or the level left.
The test system of data set [22] is HCT-116. Put plainly: Induction of apoptosis in human HCT116 cells assessed as increase in cleaved PARP expression up to 200 nM measured after 48 hrs by Western blot analysis. The format is functional, cell-based.
For data set [23], the system named is Serine/threonine-protein kinase D1 (Homo sapiens), Q15139 [UNDEFINED MUTATION]. The data set can be described thus: Inhibition of recombinant full-length human PKCmu R135A mutant assessed as residual activity at 10 uM using KKLNRTLSVA as substrate measured after 40 mins in presence of [gamma33P]ATP by scintillation counting method.
Chain of Serine/threonine-protein kinase D1 (Homo sapiens), Q15139 [UNDEFINED MUTATION] (Q15139 whole entry, looked up, stated change not applied): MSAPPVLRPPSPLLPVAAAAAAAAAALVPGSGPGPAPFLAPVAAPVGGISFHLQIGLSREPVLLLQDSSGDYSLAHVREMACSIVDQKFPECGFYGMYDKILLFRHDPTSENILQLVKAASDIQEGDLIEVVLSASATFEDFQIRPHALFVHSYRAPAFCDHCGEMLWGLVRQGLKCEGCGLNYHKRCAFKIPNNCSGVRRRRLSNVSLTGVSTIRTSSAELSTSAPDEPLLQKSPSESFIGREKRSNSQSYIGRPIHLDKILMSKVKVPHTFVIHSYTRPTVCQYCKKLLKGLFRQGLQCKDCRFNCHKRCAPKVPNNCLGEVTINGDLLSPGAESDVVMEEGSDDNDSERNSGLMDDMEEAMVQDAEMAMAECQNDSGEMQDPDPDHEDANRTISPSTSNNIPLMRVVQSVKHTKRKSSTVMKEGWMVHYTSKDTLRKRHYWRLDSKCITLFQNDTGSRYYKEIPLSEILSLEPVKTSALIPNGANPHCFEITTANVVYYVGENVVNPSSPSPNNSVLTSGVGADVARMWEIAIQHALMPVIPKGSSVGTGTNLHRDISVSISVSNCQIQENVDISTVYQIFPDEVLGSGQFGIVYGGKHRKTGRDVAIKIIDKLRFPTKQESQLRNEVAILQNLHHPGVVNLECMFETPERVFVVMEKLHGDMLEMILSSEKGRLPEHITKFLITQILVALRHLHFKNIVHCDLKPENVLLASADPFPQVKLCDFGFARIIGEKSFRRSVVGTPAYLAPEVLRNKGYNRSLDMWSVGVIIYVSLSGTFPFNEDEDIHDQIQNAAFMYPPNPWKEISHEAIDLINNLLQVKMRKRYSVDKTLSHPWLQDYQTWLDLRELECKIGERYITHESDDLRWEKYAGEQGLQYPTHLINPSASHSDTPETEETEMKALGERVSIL
In data set [24] the target is Leukocyte tyrosine kinase receptor (Homo sapiens) (UniProt P29376). The data set can be described thus: Inhibition of recombinant human LTK (450 to end residues) assessed as residual activity at 10 uM using GEEPLYWSFPAKKK as substrate measured after 40 mins in presence of [gamma33P]ATP by scintillation counting method.

Chain of Testis-specific serine/threonine-protein kinase 4 (Homo sapiens) (Q6SA08 whole entry): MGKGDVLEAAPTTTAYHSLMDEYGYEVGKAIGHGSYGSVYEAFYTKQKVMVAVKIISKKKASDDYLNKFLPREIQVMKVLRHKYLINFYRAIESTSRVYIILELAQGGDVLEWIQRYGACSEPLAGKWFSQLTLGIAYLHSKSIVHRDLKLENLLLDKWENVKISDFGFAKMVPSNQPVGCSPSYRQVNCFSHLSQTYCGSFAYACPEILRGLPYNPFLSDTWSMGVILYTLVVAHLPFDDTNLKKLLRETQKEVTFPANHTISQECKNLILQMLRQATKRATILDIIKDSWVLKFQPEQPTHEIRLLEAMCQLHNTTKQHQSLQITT
Chain of Dual specificity tyrosine-phosphorylation-regulated kinase 2 (Homo sapiens) (Q92630 whole entry): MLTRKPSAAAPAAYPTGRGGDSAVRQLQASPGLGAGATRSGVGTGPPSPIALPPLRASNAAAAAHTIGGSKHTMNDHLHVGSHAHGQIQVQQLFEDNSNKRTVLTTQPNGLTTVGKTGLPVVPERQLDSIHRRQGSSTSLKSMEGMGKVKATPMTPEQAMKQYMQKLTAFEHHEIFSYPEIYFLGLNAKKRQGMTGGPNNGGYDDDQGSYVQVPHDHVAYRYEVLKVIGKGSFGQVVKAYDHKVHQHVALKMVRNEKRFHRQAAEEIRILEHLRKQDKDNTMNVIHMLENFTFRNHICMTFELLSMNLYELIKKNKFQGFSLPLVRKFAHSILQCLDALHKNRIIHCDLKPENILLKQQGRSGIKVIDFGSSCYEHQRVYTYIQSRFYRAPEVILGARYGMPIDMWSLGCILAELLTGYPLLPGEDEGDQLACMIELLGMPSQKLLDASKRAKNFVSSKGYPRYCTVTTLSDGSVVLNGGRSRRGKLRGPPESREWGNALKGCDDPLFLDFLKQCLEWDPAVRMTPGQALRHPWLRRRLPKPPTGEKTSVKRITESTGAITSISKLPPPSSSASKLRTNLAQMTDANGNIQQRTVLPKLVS

In the case of `Cc1cc(C)c(CNc2nc(Cl)nc3c2ncn3C2CCCC2)c(=O)[nH]1`, the Activity was determined as 138% in data set [1]; 117% in [2]; 99.5% in data set [3]; 115% in data set [4]; 6.3% in data set [5]; 97% in data set [6]. Further, the Activity is 90% in [7]; 122% in data set [8]; 120% in data set [9]; 106% in [10]; 108% in data set [13]; 99.5% in data set [14]. Also, the Activity in data set [15] is 113%; in data set [16], 42.6%; in data set [17], 106%; in data set [18] it was 104%; in [19] it was “Non-Toxic”; in data set [20], 113%. Also, the Activity in [21] turned out to be 102%; in data set [23], 103%; in data set [24], 102%. The outcome in [11] and in [22] was Active. The inhibition in vivo at 80 mg/kg in [12] was determined as 71.6%.
